Laboratory results from patent publication US11896589B2, “Diazinyl amino acridines and medical uses thereof” (MyCural Therapeutics AB, priority 2018, dated 2024).
Structures can show the parent of a compound that is named as a salt.

How the values were obtained:
[1] = test system: MYCN-amplified neuroblastoma cells (SK-N-DZ, Kelly, IMR-32); test: Assay 5A neuroblastoma cell growth (WST-1), MYCN-amplified; format: cell-based; conditions: Homo sapiens
Procedure: (§1) FIG. 6: A-B) Neuroblastoma cell lines with (SK-N-DZ, Kelly and IMR-32) or without (SK-N-F1, SK-N-RA and SK-N-AS) MYCN-amplification were exposed to different concentrations of Example 1, Example 2 and control compound, respectively, for 48 hours. Cell growth and viability was estimated by measuring metabolic activity. C) Growth of TGR-1 (wt), HO15.19 (MYC knockout) and HOmyc3 (MYC reconstituted HO15.19) Rat1 fibroblasts, as measured by the WST-1 assay after treatment with Example 1. Data are shown as mean±standard deviation of 3-5 biological experiments, each with 3 technical repeats.
(§2) Assay 5A: Neuroblastoma Cell Growth
(§3) Neuroblastoma cell lines with (SK-N-DZ, Kelly and IMR-32) or without (SK-N-F1, SK-N-RA and SK-N-AS) MYCN-amplification were exposed to different concentrations of example compounds for 48 hours. Cell growth and viability was estimated by measuring metabolic activity by incubating cells in triplicates with WST-1 (Roche) in medium at 37° C. and 5% CO2 for 2 hours after which absorbance was measured with an Omega Fluostar (BMG Labtech) in a 96 well plate format.

[2] = test system: non-MYCN-amplified neuroblastoma cells (SK-N-F1, SK-N-RA, SK-N-AS); test: Assay 5A neuroblastoma cell growth (WST-1), non-MYCN-amplified; format: cell-based; conditions: Homo sapiens, SK-N-AS
Procedure: as §1, §2, §3

[3] = target: T1, MYC:MAX (MYC-GLuc-C + MAX-GLuc-N) in HEK293 cells (Homo sapiens, UniProt P01106); test: Assay 3C GLuc complementation assay; format: cell-based; conditions: HEK293
T1 construct: expressed in transfected cells; host or cells: HEK293 (also COS-7)
T1 sequence (P01106 whole entry): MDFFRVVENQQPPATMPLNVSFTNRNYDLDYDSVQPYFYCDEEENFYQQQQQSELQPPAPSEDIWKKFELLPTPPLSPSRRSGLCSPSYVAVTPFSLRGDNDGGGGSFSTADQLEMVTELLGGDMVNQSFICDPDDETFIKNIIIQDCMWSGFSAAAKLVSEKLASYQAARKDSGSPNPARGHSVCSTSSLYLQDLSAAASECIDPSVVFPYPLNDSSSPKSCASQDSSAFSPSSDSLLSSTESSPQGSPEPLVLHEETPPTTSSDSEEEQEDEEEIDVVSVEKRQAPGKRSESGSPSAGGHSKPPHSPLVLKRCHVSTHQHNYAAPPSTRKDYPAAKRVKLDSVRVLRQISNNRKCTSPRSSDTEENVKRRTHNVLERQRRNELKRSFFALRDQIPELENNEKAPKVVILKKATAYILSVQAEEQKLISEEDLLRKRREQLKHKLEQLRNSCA
Procedure: FIG. 4: A) Endogenous MYC:MAX (upper panel) and FRA1:JUN (lower panel) interactions as visualized as fluorescent red dots by isPLA. Nuclei were counterstained with DAPI (blue). Cells were treated with 10 μM of indicated compounds for 16 hours and subjected to isPLA using pairs of MYC and MAX and of FRA1 and JUN antibodies, respectively. As negative control, primary antibody pairs but only one oligo-conjugated secondary antibody was used. B) Quantification of MYC:MAX and C) FRA1:JUN isPLA, representing an average number of nuclear dots per cell from three microscopic fields normalized to corresponding values for DMSO-treated cells. […] 1st-4th lanes from top; coimmunoprecipitated MAX, immunoprecipitated MYC, total levels of MAX and ACTIN, respectively, as determined by western blot analysis. E) MYC:MAX GLuc assay in cells. […] 24 hours later cells were treated with […] of Example 1, Example 2 and control compound for 16 hours and thereafter analyzed in a dual luciferase assay. The ratio of Gaussia/Firefly luciferase luminescence were calculated and normalized to DMSO-treated cells.
The protein fragment complementation assay using the Gaussia luciferase (GLuc) has been described (Remy, I. & Michnick, S. W. A highly sensitive protein-protein interaction assay based on Gaussia luciferase. Nat Methods 3, 977-979, doi:10.1038/nmeth979 (2006)). […] 24 hours later cells were treated with compound or DMSO. After another 17 hours the cells were harvested and lyzed in passive lysis buffer (Promega) supplemented with complete protease inhibitor (Roche). After 60 min incubation at room temperature 20 μM D-luciferin was added (substrate of Firefly luciferase) and luminescence was measured in a Lumat LB9501 (Berthold) or OmegaFluostar (BMG Labtech) luminometer. Directly after, the Gaussia luciferase substrate Coelenterazine (Promega) was added to a final concentration of 20 μM and the luciferase activity was measured. The ratio between Gaussia and Firefly luciferase values were calculated and normalized to DMSO-treated control cells.

[4] = test system: Tgr and H0Myc3 Rat1 fibroblast cells; test: Assay 5B Tgr cell growth (WST-1), MYC expressing; format: cell-based, rat; conditions: Tgr/H0Myc3 vs H015.19
Procedure: as §1
Assay 5B: Tgr Cell Growth
Tgr cells were treated at 37° C. and 5% CO2 at 48 hours with Example and Example 2. H015.19 is a MYC null rat cell line derived from Tgr1 (parental cells), while H0Myc3 cells were generated from the MYC null cells by reconstitution of a MYC gene(Mateyak, M. K., Obaya, A. J., Adachi, S. & Sedivy, J. M. Phenotypes of c-Myc-deficient rat fibroblasts isolated by targeted homologous recombination. Cell Growth Differ 8, 1039-1048 (1997)).

MYCbHLHZip = target: T2, MYCbHLHZip (Homo sapiens, UniProt P01106); test: Assay 2B MYC SPR assay; format: binding; conditions: equilibrium binding experiments
T2 construct: An amino coupling procedure was used to immobilize MYCbHLHZip protein on a CM5 sensor chip
T2 sequence (P01106 368-449 limits assumed): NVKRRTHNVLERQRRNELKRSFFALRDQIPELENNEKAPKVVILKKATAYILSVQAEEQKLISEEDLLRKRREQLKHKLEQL
Procedure: FIG. 3: A) SPR assay to determine affinity of Example 1 to MYC. MYC bHLHZip protein was immobilized by aminocoupling on a CM5 sensor chip. Example 1 was injected at various concentrations in a kinetic experiment. The reference surface was subtracted from the analyte surface to generate a sensorgram. […] B) Four MYC equilibrium binding experiments with Example 1 summarized in an equilibrium binding plot. […] Equilibrium binding experiments of MYC with Example 2 and control compound (non-binder) were plotted as well. Assay 2B. MYC SPR Assay To analyze the direct binding of compounds to MYC, the direct binding of compounds to MYC was detected by surface plasmon resonance (SPR) as described above (Biological example 1—Assay 1B). An amino coupling procedure was used to immobilize MYCbHLHZip protein on a CM5 sensor chip (GE Healthcare) resulting in immobilization levels of approximately 800 respectively 1000 RU. The compounds were injected at different concentrations, one at a time, over the surface for 50-80 seconds with a flow rate of 30 μl/min. Afterwards the compounds were allowed to dissociate for 240 seconds in running buffer (137 mM NaCl, 2.7 mM KCl, 10 mM Na2HPO4, 1.8 mM KH2PO4, 0.005% Tween-20, 1% DMSO, pH 7.4). To remove all remaining analyte the surface was regenerated with 2M Urea for 30 seconds and thereafter 1M NaCl, 2.7 mM KCl, 10 mM Na2HPO4, 1.8 mM KH2PO4, 1% DMSO, pH 7.4 for 30 seconds. Sensorgrams were generated by subtraction of the reference (blank immobilized) surface. Binding responses were related to respective compounds' Rmax. Rmax is the maximum response of a compound when it binds with a 1:1 stochiometry to the protein; Rmax=(MW analyte/MW ligand)×immobilized ligand level on the chip (RU) x stoichiometry (1:1). Kinetic experiments were carried out where recombinant MYC bHLHZip was immobilized on the chip and different concentrations of Example 1 were injected as above. […] Example 2-6 were analyzed for their MYC binding properties by equilibrium binding experiments as described for example 1.

Row | GI50 ([1]; first run, 48 hours) [µM] | GI50 ([1]; second run) [µM] | GI50 ([2]; 48 h, first run) [µM] | GI50 ([2]; second run) [µM] | inhibition at 10 µM [3] [%] | Binding relative to Rmax (MYCbHLHZip) [Response Units] | SMILES | discrimination between cells dependent on MYC status [4]
1 |  | 4 |  | 10 |  |  | CCOc1ccc2nc3cc(/N=N/c4ccc(O)c(CNCCN(C)C)c4)ccc3c(N)c2c1 [Example 8, 4-[(E)-(9-amino-7-ethoxy-acridin-3-yl)azo]-2-[[2-(dimethylamino)ethylamino]methyl]phenol hydrochloride] | 
2 |  | 6 |  | 11 |  |  | CCOc1ccc2nc3cc(/N=N/c4ccc(O)c(CN(C)CCN(C)C)c4)ccc3c(N)c2c1 [Example 9, 4-[(E)-(9-amino-7-ethoxy-acridin-3-yl)azo]-2-[[2-(dimethylamino)ethyl-methyl-amino]methyl]phenol] | 
3 |  | 15 |  |  |  |  | CCOc1ccc2nc3cc(/N=N/c4ccc(O)c(CO)c4)ccc3c(N)c2c1 [Example 10, 4-[(E)-2-(9-amino-7-ethoxyacridin-3-yl)diazen-1-yl]-2-(hydroxymethyl)phenol] | 
4 |  | 25 |  |  |  |  | CCOc1ccc2nc3cc(/N=N/c4ccc(O)c(CN(C)C)c4)ccc3c(N)c2c1 [Example 12, 4-[(E)-2-(9-amino-7-ethoxyacridin-3-yl)diazen-1-yl]-2-((dimethylamino)methyl)phenol] | 

Further lines, the compound ahead of its results:

Row | SMILES | GI50 ([1]; first run, 48 hours) [µM] | GI50 ([1]; second run) [µM] | GI50 ([2]; 48 h, first run) [µM] | GI50 ([2]; second run) [µM] | inhibition at 10 µM [3] [%] | Binding relative to Rmax (MYCbHLHZip) [Response Units] | discrimination between cells dependent on MYC status [4]
5 | CCOc1ccc2nc3cc(/N=N/c4cc(C)c(O)cc4C)ccc3c(N)c2c1 [Example 2, 4-((9-amino-7-ethoxyacridin-3-yl)diazenyl)-3,6-dimethylphenol] | 4 | 2.5 | 12.5 | 10 | 65 | 1.2 | discriminated between cells dependent on MYC status
6 | CCOc1ccc2nc3cc(/N=N/c4c(C)cc(O)cc4C)ccc3c(N)c2c1 [Example 3, 4-((9-amino-7-ethoxyacridin-3-yl)diazenyl)-3,5-dimethylphenol hydrate] |  | 2 |  | > 25 |  | 1.5 | 
7 | CCOc1ccc2nc3cc(/N=N/c4cc(C)c(O)c(C)c4)ccc3c(N)c2c1 [Example 6, 4-((9-amino-7-ethoxyacridin-3-yl)diazenyl)-2,6-dimethylphenol] |  | 1 |  | > 25 |  | 0.8 | 
